From US9274101B2 (BIOLOG, Inc., priority 2001, dated 2016)

How the values were obtained:
HL-60 cells [1] = test: HL-60 responses to selected compounds at a range of concentrations; format: cell-based, human; conditions: for activity at 30 µM / activity at 100 µM / activity at 330 µM / activity at 1000 µM / activity at 3300 µM / activity at 10000 µM / activity at 15000 µM / activity at 20000 µM: Homo sapiens, HL-60, read-out: HL-60 Cell Responses to Selected Compounds from PM1 and PM2
Procedure: In this Example, methods for testing unattached cells for their ability to use various concentrations of selected carbon sources are described. The carbon sources used in this Example were identified by the methods disclosed in Example 27. Similarly, HL-60 cells were cultured as described in Example 27.
After washing, HL-60 cells were resuspended in DME-R. An aliquot of the cell suspension was counted by trypan blue exclusion and the cell density was adjusted to 6.67×10^5/mL. Fifty μL of DME-R were added to each well of the appropriate number of half area, 96-well plates, followed by 23 μL of the appropriate dilution of each test energy source. Stocks of 133 mM of each test chemical were prepared in tissue culture grade water, sterile filtered, and dilutions were prepared in a master plate so that, upon dilution in a total volume of 150 μL, the final concentrations would be 0.033 to 20 mM. Negative control wells received 23 μL of tissue culture grade water. The cells were plated at a volume of 75 μL/well, giving a final cell density of 5×10^4/well. For each plate containing energy sources and cells, a second, control plate containing only energy sources was prepared. Plates were incubated at 5% CO2, 90-100% humidity, and 37° C. for 24 hours prior to addition of the MTS/MPMS colorometric reagent (7.5 μL/well). The color formed in each well after an additional 24 hour incubation period, was measured on a plate reader at 490 nm with a reference wavelength of 650 nm. OD values from the control plate were subtracted from the OD values obtained with cells prior to normalizing the data to % negative control (cells without added energy source).

HL-60 cells [2] = test: Effect of 1 mM chloramphenicol on HL-60 energy utilization; format: cell-based, human; conditions: negative control without chloramphenicol
Procedure: In this Example, methods for testing antimicrobial-induced modulation in growth of a cell are described. The antimicrobial selected for this Example is chloramphenicol. However, this application is not intended to be limited to the use of chloramphenicol, translation inhibitors or even antibiotics. HL-60 cells were cultured as described in Example 27.
After washing, HL-60 cells were resuspended in DME-R. An aliquot of the cell suspension was counted by trypan blue exclusion and the cell density was adjusted to 6.67×10^5[…]. Fifty μL of DME-R containing 3 mM chloramphenicol were added to each well of the appropriate number of half area, 96-well plates, followed by 25 μL of the appropriate dilution of each test energy source. Stocks of 133 mM of each test chemical were prepared in tissue culture grade water, sterile filtered, and dilutions were prepared in a master plate so that, upon dilution in a total volume of 150 μL, the final concentrations would be 0.033 to 20 mM. Negative control wells received 25 μL of tissue culture grade water. The cells were plated at a volume of 75 μL/well, giving a final cell density of 5×10^4/well. For each plate containing energy sources and cells, a second, control plate containing only energy sources was prepared. Plates were incubated at 5% CO2, 90-100% humidity, and 37° C. for 24 hours prior to addition of the MTS/MPMS colorimetric reagent (7.5 μL/well). The color formed in each well 24 hours after addition of the colorimetric reagent, was measured with a plate reader at 490 nm with a reference wavelength of 650 nm. OD values from the control plate were subtracted from the OD values obtained with cells prior to normalizing the data to % negative control.
Data shown in Table 25 are expressed as percent negative control without chloramphenicol. […] Chloramphenicol clearly has a different effect on the cells than citrate shown in Example 33.

[3] = energy source 0.03 mM with 1 mM chloramphenicol
[4] = energy source 0.10 mM with 1 mM chloramphenicol
[5] = energy source 0.33 mM with 1 mM chloramphenicol
[6] = energy source 1.00 mM with 1 mM chloramphenicol
[7] = energy source 3.3 mM with 1 mM chloramphenicol
[8] = energy source 10 mM with 1 mM chloramphenicol
[9] = energy source 15 mM with 1 mM chloramphenicol
[10] = energy source 20 mM with 1 mM chloramphenicol

| SMILES | activity at 30 µM (HL-60 cells [1]; Conc. 0.03 mM) | activity at 100 µM (HL-60 cells [1]; Conc. 0.10 mM) | activity at 330 µM (HL-60 cells [1]; Conc. 0.33 mM) | activity at 1000 µM (HL-60 cells [1]; Conc. 1.00 mM) | activity at 3300 µM (HL-60 cells [1]; Conc. 3.3 mM) | activity at 10000 µM (HL-60 cells [1]; Conc. 10 mM) | activity at 15000 µM (HL-60 cells [1]; Conc. 15 mM) | activity at 20000 µM (HL-60 cells [1]; Conc. 20 mM) | Effect of 1 mM chloramphenicol on HL-60 Energy Utilization (HL-60 cells [2]; [3]) | Effect of 1 mM chloramphenicol on HL-60 Energy Utilization (HL-60 cells [2]; [4]) | Effect of 1 mM chloramphenicol on HL-60 Energy Utilization (HL-60 cells [2]; [5]) | Effect of 1 mM chloramphenicol on HL-60 Energy Utilization (HL-60 cells [2]; [6]) | Effect of 1 mM chloramphenicol on HL-60 Energy Utilization (HL-60 cells [2]; [7]) | Effect of 1 mM chloramphenicol on HL-60 Energy Utilization (HL-60 cells [2]; [8]) | Effect of 1 mM chloramphenicol on HL-60 Energy Utilization (HL-60 cells [2]; [9]) | Effect of 1 mM chloramphenicol on HL-60 Energy Utilization (HL-60 cells [2]; [10]) | other results |
| --- | --- | --- | --- | --- | --- | --- | --- | --- | --- | --- | --- | --- | --- | --- | --- | --- | --- |
| Cc1cn([C@H]2C[C@H](O)[C@@H](CO)O2)c(=O)[nH]c1=O [Thymidine] | 121% | 125% | 128% | 134% | 129% | 106% | 91.5% | 68.5% | 8.4 % of negative control | 5.8 % of negative control | 6.4 % of negative control | 3.1 % of negative control | 8.8 % of negative control | 5.8 % of negative control | 6.0 % of negative control | 7.3 % of negative control |  |
| O=C(O)[C@@H]1C[C@@H](O)CN1 [hydroxy L-proline] |  |  |  |  |  |  |  |  | 1.2 % of negative control | −5.0 % of negative control | 2.6 % of negative control | −1.2 % of negative control | 4.4 % of negative control | 1.7 % of negative control | 15.7 % of negative control | 0.6 % of negative control | response greater than the negative control (HL-60 cells [1]; 0.033 to 20 mM, 24 h culture + 24 h color development): < 30%; HL-60 Cell Responses to Selected Compounds from PM1 and PM2 (HL-60 cells [1]; Conc. 0.03 mM): 125.0 % of negative control; HL-60 Cell Responses to Selected Compounds from PM1 and PM2 (HL-60 cells [1]; Conc. 0.10 mM): 122.8 % of negative control; HL-60 Cell Responses to Selected Compounds from PM1 and PM2 (HL-60 cells [1]; Conc. 0.33 mM): 121.5 % of negative control; HL-60 Cell Responses to Selected Compounds from PM1 and PM2 (HL-60 cells [1]; Conc. 1.00 mM): 128.4 % of negative control; HL-60 Cell Responses to Selected Compounds from PM1 and PM2 (HL-60 cells [1]; Conc. 3.3 mM): 129.6 % of negative control; HL-60 Cell Responses to Selected Compounds from PM1 and PM2 (HL-60 cells [1]; Conc. 10 mM): 121.5 % of negative control; HL-60 Cell Responses to Selected Compounds from PM1 and PM2 (HL-60 cells [1]; Conc. 15 mM): 111.8 % of negative control; HL-60 Cell Responses to Selected Compounds from PM1 and PM2 (HL-60 cells [1]; Conc. 20 mM): 99.2 % of negative control |
| COC(=O)CCC(=O)O [mono methyl succinate] | 118% | 130% | 133% | 142% | 167% | 173% | 139% | 93.3% | 10.4 % of negative control | −2.1 % of negative control | 2.6 % of negative control | 1.8 % of negative control | 43.3 % of negative control | 78.1 % of negative control | 47.8 % of negative control | 16.2 % of negative control |  |
